Source: PubChem BioAssay (NCI)
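Interpolation was linear, between the two tested concentrations surrounding the appropriate level; five concentrations were tested over 48 hours in 96-well plates. The concentration for 50% growth inhibition is given as GI50. At the TGI there is no net growth.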

Columns and labels:
Assay in all cases: NCI tumour cell line growth inhibition, 48 h
[1] = test system: MCF7 breast
[2] = test system: SR leukemia
[3] = test system: CCRF-CEM leukemia
[4] = test system: SK-MEL-5 melanoma
[5] = test system: M14 melanoma
[6] = test system: NCI-H226 lung
[7] = test system: EKVX NSCLC
[8] = test system: SNB-75 CNS
[9] = test system: SNB-19 CNS
[10] = test system: MOLT-4 leukemia
[11] = test system: CAKI-1 renal
[12] = test system: MDA-MB-231 breast
[13] = test system: OVCAR-8 ovarian
[14] = test system: SW-620 colon
[15] = test system: ACHN renal
[16] = test system: A498 renal
[17] = test system: SK-MEL-2 melanoma
[18] = test system: RXF 393 renal
[19] = test system: BT-549 breast
[20] = test system: MDA-MB-435
[21] = test system: HCC-2998 colon
[22] = test system: SF-268 CNS
[23] = test system: K-562 leukemia
[24] = test system: RPMI-8226 leukemia
[25] = test system: SK-MEL-28 melanoma
[26] = test system: DU-145 prostate
[27] = test system: SF-295 CNS
[28] = test system: UACC-62 melanoma
[29] = test system: A549 NSCLC
[30] = test system: OVCAR-5 ovarian
[31] = test system: OVCAR-4 ovarian
[32] = test system: HOP-62 NSCLC
[33] = test system: NCI-H23 lung
[34] = test system: KM12 colon
[35] = test system: SN12C renal
[36] = test system: 786-0 renal
[37] = test system: COLO 205 colon
[38] = test system: HL-60(TB) leukemia
[39] = test system: U251 CNS
[40] = test system: HT29 colon
[41] = test system: OVCAR-3 ovarian
[42] = test system: HOP-92 NSCLC
[43] = test system: NCI-H460 lung
[44] = test system: TK-10 renal
[45] = test system: HCT-116 colon
[46] = test system: SF-539 CNS
[47] = test system: PC-3 prostate
[48] = test system: HCT-15 colon
[49] = test system: UACC-257 melanoma
[50] = test system: UO-31 renal
[51] = test system: HS 578T breast
[52] = test system: IGROV1 ovarian
[53] = test system: NCI/ADR-RES ovarian
[54] = test system: SK-OV-3 ovarian
[55] = test system: T-47D breast
[56] = test system: NCI-H522 lung
[57] = test system: LOX IMVI melanoma
[58] = test system: MALME-3M melanoma

COc1ccc(-c2[nH]c(=O)n(C3OC(CO)C(O)C(O)C3O)c(=O)c2C#N)cc1 (stereo unspecified)
TGI [1]: > 100 µM | TGI [2]: > 100 µM | TGI [3]: > 100 µM | TGI [4]: > 100 µM | TGI [5]: > 100 µM | TGI [6]: > 100 µM | TGI [7]: > 100 µM | TGI [8]: > 100 µM | TGI [9]: > 100 µM | TGI [10]: > 100 µM | TGI [11]: > 100 µM | TGI [12]: > 100 µM | TGI [13]: > 100 µM | TGI [14]: > 100 µM | TGI [15]: > 100 µM | TGI [16]: > 100 µM | TGI [17]: > 100 µM | TGI [18]: > 100 µM | TGI [19]: > 100 µM | TGI [20]: > 100 µM | TGI [21]: > 100 µM | TGI [22]: > 100 µM | TGI [23]: > 100 µM | TGI [24]: > 100 µM | TGI [25]: > 100 µM | TGI [26]: > 100 µM | TGI [27]: > 100 µM | TGI [28]: > 100 µM | TGI [29]: > 100 µM | TGI [30]: > 100 µM | TGI [31]: > 100 µM | TGI [32]: > 100 µM | TGI [33]: > 100 µM | TGI [34]: > 100 µM | TGI [35]: > 100 µM | TGI [36]: > 100 µM | TGI [37]: > 100 µM | TGI [38]: > 100 µM | TGI [39]: > 100 µM | TGI [40]: > 100 µM | TGI [41]: > 100 µM | TGI [42]: > 100 µM | TGI [43]: > 100 µM | TGI [44]: > 100 µM | TGI [45]: > 100 µM | TGI [46]: > 100 µM | TGI [47]: > 100 µM | TGI [48]: > 100 µM | TGI [49]: > 100 µM | TGI [50]: > 100 µM | TGI [51]: > 100 µM | TGI [52]: > 100 µM | TGI [53]: > 100 µM | TGI [54]: > 100 µM | TGI [55]: > 100 µM | TGI [56]: > 100 µM

CC(=O)Nc1ccc(-c2csc(Nc3ccc(-c4csc(-c5ccccc5)n4)cc3)n2)cc1
GI50 [1]: 16.3 µM | TGI [1]: > 50 µM | GI50 [2]: 9.64 µM | TGI [2]: 45.2 µM | GI50 [3]: > 50 µM | TGI [3]: > 50 µM | GI50 [4]: 11.1 µM | TGI [4]: 41.2 µM | GI50 [5]: > 50 µM | TGI [5]: > 50 µM | GI50 [57]: 31 µM | TGI [57]: > 50 µM | GI50 [7]: 12.9 µM | TGI [7]: > 50 µM | GI50 [9]: 16.5 µM | TGI [9]: > 50 µM | GI50 [11]: 20.9 µM | TGI [11]: > 50 µM | GI50 [12]: 6.94 µM | TGI [12]: 27.8 µM | GI50 [13]: 10.7 µM | TGI [13]: > 50 µM | GI50 [14]: > 50 µM | TGI [14]: > 50 µM | GI50 [15]: 7.53 µM | TGI [15]: 27.9 µM | GI50 [16]: 12.5 µM | TGI [16]: 25.6 µM | GI50 [18]: 13.3 µM | TGI [18]: > 50 µM | GI50 [19]: 11.4 µM | TGI [19]: > 50 µM | GI50 [20]: 19.1 µM | TGI [20]: > 50 µM | GI50 [22]: 19.9 µM | TGI [22]: > 50 µM | GI50 [23]: 5.52 µM | TGI [23]: > 50 µM | GI50 [24]: > 50 µM | TGI [24]: > 50 µM | GI50 [25]: 7.14 µM | TGI [25]: 42.9 µM | GI50 [26]: 36.1 µM | TGI [26]: > 50 µM | GI50 [27]: 36.3 µM | TGI [27]: > 50 µM | GI50 [28]: 5.98 µM | TGI [28]: > 50 µM | GI50 [29]: 12.6 µM | TGI [29]: > 50 µM | GI50 [30]: 12.6 µM | TGI [30]: 42.6 µM | GI50 [32]: > 50 µM | TGI [32]: > 50 µM | GI50 [33]: 3.73 µM | TGI [33]: 20.1 µM | GI50 [34]: 25.5 µM | TGI [34]: > 50 µM | GI50 [35]: 5.64 µM | TGI [35]: 23.9 µM | GI50 [36]: 32.2 µM | TGI [36]: > 50 µM | GI50 [37]: > 50 µM | TGI [37]: > 50 µM | GI50 [38]: 37.4 µM | TGI [38]: > 50 µM | GI50 [39]: 7.16 µM | TGI [39]: 21.3 µM | GI50 [41]: > 50 µM | TGI [41]: > 50 µM | GI50 [42]: > 50 µM | TGI [42]: > 50 µM | GI50 [43]: 7.94 µM | TGI [43]: > 50 µM | GI50 [44]: 16.4 µM | TGI [44]: > 50 µM | GI50 [45]: > 50 µM | TGI [45]: > 50 µM | GI50 [47]: 20.6 µM | TGI [47]: > 50 µM | GI50 [48]: 17.4 µM | TGI [48]: > 50 µM | GI50 [49]: > 50 µM | TGI [49]: > 50 µM | GI50 [50]: > 50 µM | TGI [50]: > 50 µM | GI50 [51]: 40.9 µM | TGI [51]: > 50 µM | GI50 [52]: 10.9 µM | TGI [52]: 40.2 µM | GI50 [53]: 11.1 µM | TGI [53]: 37.2 µM | GI50 [54]: 9.08 µM | TGI [54]: > 50 µM | GI50 [55]: 26.5 µM | TGI [55]: > 50 µM | GI50 [56]: 16.3 µM | TGI [56]: 41.5 µM

CC(C)(O)c1coc(S(=O)(=O)/N=C(\O)Nc2c3c(cc4c2CCC4)CCC3)c1
GI50 [1]: > 100 µM | TGI [1]: > 100 µM | GI50 [2]: > 100 µM | TGI [2]: > 100 µM | GI50 [4]: > 100 µM | TGI [4]: > 100 µM | GI50 [5]: > 100 µM | TGI [5]: > 100 µM | GI50 [57]: > 100 µM | TGI [57]: > 100 µM | GI50 [6]: > 100 µM | TGI [6]: > 100 µM | GI50 [7]: > 100 µM | TGI [7]: > 100 µM | GI50 [8]: > 100 µM | TGI [8]: > 100 µM | GI50 [9]: > 100 µM | TGI [9]: > 100 µM | GI50 [10]: > 100 µM | TGI [10]: > 100 µM | GI50 [11]: > 100 µM | TGI [11]: > 100 µM | GI50 [12]: > 100 µM | TGI [12]: > 100 µM | GI50 [13]: > 100 µM | TGI [13]: > 100 µM | GI50 [14]: > 100 µM | TGI [14]: > 100 µM | GI50 [15]: > 100 µM | TGI [15]: > 100 µM | GI50 [16]: > 100 µM | TGI [16]: > 100 µM | GI50 [17]: > 100 µM | TGI [17]: > 100 µM | GI50 [18]: > 100 µM | TGI [18]: > 100 µM | GI50 [19]: > 100 µM | TGI [19]: > 100 µM | GI50 [20]: > 100 µM | TGI [20]: > 100 µM | GI50 [21]: > 100 µM | TGI [21]: > 100 µM | GI50 [22]: > 100 µM | TGI [22]: > 100 µM | GI50 [23]: > 100 µM | TGI [23]: > 100 µM | GI50 [24]: > 100 µM | TGI [24]: > 100 µM | GI50 [25]: > 100 µM | TGI [25]: > 100 µM | GI50 [26]: > 100 µM | TGI [26]: > 100 µM | GI50 [27]: > 100 µM | TGI [27]: > 100 µM | GI50 [28]: > 100 µM | TGI [28]: > 100 µM | GI50 [29]: > 100 µM | TGI [29]: > 100 µM | GI50 [58]: > 100 µM | TGI [58]: > 100 µM | GI50 [30]: > 100 µM | TGI [30]: > 100 µM | GI50 [31]: > 100 µM | TGI [31]: > 100 µM | GI50 [32]: > 100 µM | TGI [32]: > 100 µM | GI50 [33]: > 100 µM | TGI [33]: > 100 µM | GI50 [34]: > 100 µM | TGI [34]: > 100 µM | GI50 [35]: > 100 µM | TGI [35]: > 100 µM | GI50 [36]: > 100 µM | TGI [36]: > 100 µM | GI50 [37]: > 100 µM | TGI [37]: > 100 µM | GI50 [38]: > 100 µM | TGI [38]: > 100 µM | GI50 [39]: > 100 µM | TGI [39]: > 100 µM | GI50 [40]: > 100 µM | TGI [40]: > 100 µM | GI50 [41]: > 100 µM | TGI [41]: > 100 µM | GI50 [42]: 91.9 µM | TGI [42]: > 100 µM | GI50 [43]: > 100 µM | TGI [43]: > 100 µM | GI50 [44]: > 100 µM | TGI [44]: > 100 µM | GI50 [45]: > 100 µM | TGI [45]: > 100 µM | GI50 [46]: > 100 µM | TGI [46]: > 100 µM | GI50 [47]: > 100 µM | TGI [47]: > 100 µM | GI50 [48]: > 100 µM | TGI [48]: > 100 µM | GI50 [49]: > 100 µM | TGI [49]: > 100 µM | GI50 [50]: > 100 µM | TGI [50]: > 100 µM | GI50 [51]: > 100 µM | TGI [51]: > 100 µM | GI50 [52]: > 100 µM | TGI [52]: > 100 µM | GI50 [54]: > 100 µM | TGI [54]: > 100 µM | GI50 [55]: > 100 µM | TGI [55]: > 100 µM | GI50 [56]: > 100 µM | TGI [56]: > 100 µM
